Results from ChEMBL document CHEMBL6134875, “Farnesyl Transferase Inhibitors as a Novel Strategy for Targeting KRAS-Dependent Cancers” (2025).

Legend:
Format in all cases: functional
NCI-H2122 [1] = assay: Antitumor activity against human NCI-H2122 cells harboring KRAS […] mutant xenografted in BALB/c nude mouse assessed as tumor volume at 15 mg/kg, po administered once daily and measured on day 27 in presence of adagrasib (reference value: 1559.54 +/- 225.48 mm3); settings: time 27 day
NCI-H2122 [2] = assay: Antitumor activity against human NCI-H2122 cells harboring KRAS […] mutant xenografted in BALB/c nude mouse assessed as tumor growth inhibition at 15 mg/kg, po administered twice daily and measured on day 27; settings: NCI-H2122, 648 h, time 27 day, read-out: TGI
NCI-H2122 [3] = assay: Antitumor activity against human NCI-H2122 cells harboring KRAS […] mutant xenografted in BALB/c nude mouse assessed as T/C ratio at 15 mg/kg, po administered twice daily and measured on day 27 relative to control; settings: time 27 day
NCI-H2122 [4] = assay: Antitumor activity against human NCI-H2122 cells harboring KRAS […] mutant xenografted in BALB/c nude mouse assessed as T/C ratio at 15 mg/kg, po administered once daily and measured on day 27 in presence of adagrasib relative to control; settings: time 27 day
NCI-H2122 [5] = assay: Antitumor activity against human NCI-H2122 cells harboring KRAS […] mutant xenografted in BALB/c nude mouse assessed as tumor volume at 15 mg/kg, po administered twice daily and measured on day 27 (reference value: 1559.54 +/- 225.48 mm3); settings: time 27 day
NCI-H2122 [6] = assay: Antitumor activity against human NCI-H2122 cells harboring KRAS […] mutant xenografted in BALB/c nude mouse assessed as tumor growth inhibition at 15 mg/kg, po administered once daily and measured on day 27 in presence of adagrasib; settings: NCI-H2122, 648 h, time 27 day, read-out: TGI
NCI-H2122 [7] = assay: Antitumor activity against human NCI-H2122 cells harboring KRAS […] mutant xenografted in BALB/c nude mouse assessed as tumor growth inhibition at 100 mg/kg, po administered once daily and measured on day 27; settings: NCI-H2122, 648 h, time 27 day, read-out: TGI
NCI-H2122 [8] = assay: Antitumor activity against human NCI-H2122 cells harboring KRAS […] mutant xenografted in BALB/c nude mouse assessed as tumor volume at 100 mg/kg, po administered once daily and measured on day 27 (reference value: 1559.54 +/- 225.48 mm3); settings: time 27 day
NCI-H2122 [9] = assay: Antitumor activity against human NCI-H2122 cells harboring KRAS […] mutant xenografted in BALB/c nude mouse assessed as T/C ratio at 100 mg/kg, po administered once daily and measured on day 27 relative to control; settings: time 27 day
NCI-H2122 [10] = assay: Antitumor activity against human NCI-H2122 cells harboring KRAS […] mutant xenografted in BALB/c nude mouse assessed as T/C ratio at 60 mg/kg, po administered once daily and measured on day 27 in presence of adagrasib relative to control; settings: time 27 day
NCI-H2122 [11] = assay: Antitumor activity against human NCI-H2122 cells harboring KRAS […] mutant xenografted in BALB/c nude mouse assessed as tumor volume at 60 mg/kg, po administered once daily and measured on day 27 in presence of sotorasib (reference value: 1559.54 +/- 225.48 mm3); settings: time 27 day
NCI-H2122 [12] = assay: Antitumor activity against human NCI-H2122 cells harboring KRAS […] mutant xenografted in BALB/c nude mouse assessed as T/C ratio at 60 mg/kg, po administered once daily and measured on day 27 in presence of sotorasib relative to control; settings: time 27 day
NCI-H2122 [13] = assay: Antitumor activity against human NCI-H2122 cells harboring KRAS […] mutant xenografted in BALB/c nude mouse assessed as T/C ratio at 60 mg/kg, po administered twice daily and measured on day 27 relative to control; settings: time 27 day
NCI-H2122 [14] = assay: Antitumor activity against human NCI-H2122 cells harboring KRAS […] mutant xenografted in BALB/c nude mouse assessed as tumor volume at 60 mg/kg, po administered once daily and measured on day 27 in presence of adagrasib (reference value: 1559.54 +/- 225.48 mm3); settings: time 27 day
NCI-H2122 [15] = assay: Antitumor activity against human NCI-H2122 cells harboring KRAS […] mutant xenografted in BALB/c nude mouse assessed as tumor growth inhibition at 60 mg/kg, po administered twice daily and measured on day 27; settings: NCI-H2122, 648 h, time 27 day, read-out: TGI
NCI-H2122 [16] = assay: Antitumor activity against human NCI-H2122 cells harboring KRAS […] mutant xenografted in BALB/c nude mouse assessed as tumor growth inhibition at 60 mg/kg, po administered once daily and measured on day 27 in presence of sotorasib; settings: NCI-H2122, 648 h, time 27 day, read-out: TGI
NCI-H2122 [17] = assay: Antitumor activity against human NCI-H2122 cells harboring KRAS […] mutant xenografted in BALB/c nude mouse assessed as tumor volume at 60 mg/kg, po administered twice daily and measured on day 27 (reference value: 1559.54 +/- 225.48 mm3); settings: time 27 day
NCI-H2122 [18] = assay: Antitumor activity against human NCI-H2122 cells harboring KRAS […] mutant xenografted in BALB/c nude mouse assessed as tumor growth inhibition at 60 mg/kg, po administered once daily and measured on day 27 in presence of adagrasib; settings: NCI-H2122, 648 h, time 27 day, read-out: TGI

For `Cn1cncc1[C@@]1(N)c2ccc(C#N)c(c2)COc2cccc(c2)-c2cc(C#N)nc3ccc1cc23`, the Activity (NCI-H2122 [1]) was 187.07 mm3, the inhibition in vivo at 15 mg/kg (NCI-H2122 [2]) was 31.9% and the T/C (NCI-H2122 [3]) was 68.13%. The T/C (NCI-H2122 [4]) was 12%, the Activity (NCI-H2122 [5]) was 1062.47 mm3 and the inhibition in vivo at 15 mg/kg (NCI-H2122 [6]) was 88%.

`C=C(F)C(=O)N1CCN(c2nc(OC[C@@H]3CCCN3C)nc3c2CCN(c2cccc4cccc(Cl)c24)C3)C[C@@H]1CC#N` [ADAGRASIB] was tested, and the inhibition in vivo at 100 mg/kg (NCI-H2122 [7]) was 61.5%, the Activity (NCI-H2122 [8]) was 600.26 mm3 and the T/C (NCI-H2122 [9]) was 38.49%.

`C=CC(=O)N1CCN(c2nc(=O)n(-c3c(C)ccnc3C(C)C)c3nc(-c4c(O)cccc4F)c(F)cc23)[C@@H](C)C1` [SOTORASIB] was tested, and the inhibition in vivo at 100 mg/kg (NCI-H2122 [7]) was 58.8%, the Activity (NCI-H2122 [8]) was 643.34 mm3 and the T/C (NCI-H2122 [10]) was 41.25%.

`Cn1cncc1[C@@](N)(c1ccc(Cl)cc1)c1ccc2c(c1)c(-c1cccc(Cl)c1)cc(=O)n2C` [TIPIFARNIB] showed an Activity (NCI-H2122 [11]) of 233.84 mm3, a T/C (NCI-H2122 [12]) of 14.99% and a T/C (NCI-H2122 [13]) of 64.15%. The Activity (NCI-H2122 [14]) was 177.5 mm3, the inhibition in vivo at 60 mg/kg (NCI-H2122 [15]) was 35.9% and the T/C (NCI-H2122 [10]) was 11.38%. It also gave an inhibition in vivo at 60 mg/kg (NCI-H2122 [16]) of 85%, an Activity (NCI-H2122 [17]) of 1000.38 mm3 and an inhibition in vivo at 60 mg/kg (NCI-H2122 [18]) of 88.6%.
